The text below walks through data of US11312705B2, “Heteroaryl[4,3-C]pyrimidine-5-amine derivative, preparation method therefor, and medical uses thereof” (Jiangsu Hengrui Medicine Co., Ltd., priority 2017, dated 2022).

One may read the IC50 as the concentration that gives 50% inhibition. A higher IC50 goes with lower potency.

Type in all cases: cell-based
Experiment [1] deals with adenosine A1 receptor (A1R) (Homo sapiens (Human), UniProt P30542). In words: Inhibition of adenosine A1 receptor cAMP signaling pathway (HTRF cAMP, CHO-K1/A1R cells). The note with it: Table 2; for IC50: CHO-K1/A1R cells, forskolin 10 μM, CPA 10 nM, cAMP HTRF; for IC50 ratio (A1R/A2aR): selectivity A1R over A2aR. An excerpt: (§1) Test Example 1. Determination of the inhibition activity of the compounds of the present invention on the adenosine A2a receptor (A2aR) cAMP signaling pathway, the adenosine A2b receptor (A2bR) cAMP signaling pathway, the adenosine A1 receptor (A1R) cAMP signaling pathway and the adenosine A3 receptor (A3R) cAMP signaling pathway.
Chain of adenosine A1 receptor (A1R) (P30542 whole entry): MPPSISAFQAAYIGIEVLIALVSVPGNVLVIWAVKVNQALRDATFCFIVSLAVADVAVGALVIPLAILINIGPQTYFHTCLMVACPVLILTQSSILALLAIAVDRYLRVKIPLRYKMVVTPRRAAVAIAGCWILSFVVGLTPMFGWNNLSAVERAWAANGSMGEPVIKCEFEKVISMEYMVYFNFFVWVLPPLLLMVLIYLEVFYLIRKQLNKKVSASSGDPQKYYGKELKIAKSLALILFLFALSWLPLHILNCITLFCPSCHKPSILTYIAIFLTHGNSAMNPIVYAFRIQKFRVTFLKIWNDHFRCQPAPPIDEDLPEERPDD
(§2) The inhibition activity of the compounds of the present invention on the adenosine A2a receptor cAMP signaling pathway, the adenosine A2b receptor cAMP signaling pathway, the adenosine A1 receptor cAMP signaling pathway and the adenosine A3 receptor cAMP signaling pathway was determined by the following method. The experimental method is briefly described as follows:
2.2 Adenosine A1 receptor
(§3) CHO-K1/A1R cells were cultured in DMEM/F12 medium containing 10% fetal bovine serum and 1 mg/ml G418. The cells were digested with the cell separation buffer during the experiment. The cells were then resuspended in the balanced salt buffer containing 20 mM HEPES and 0.1% bovine serum albumin and counted, and the cell density was adjusted to 5×10^5 cells/ml. In the 384-well plate, each well was added with 12.5 μl of cell suspension, and 6.25 μl of test compound (4× concentration) formulated with the balanced salt buffer containing 20 mM HEPES, 0.1% bovine serum albumin, 54 μM rolipram and 2.7 U/ml adenosine deaminase, and the plate was incubated at room temperature for 30 minutes. Each well was then added with 6.25 μl of forskolin and N6-cyclopentyladenosine (4× concentration) formulated with the balanced salt buffer containing 20 mM HEPES, 0.1% bovine serum albumin, 54 μM rolipram and 2.7 U/ml adenosine deaminase, and the plate was incubated at room temperature for 30 minutes. The final concentrations of the compounds were: 100000, 10000, 1000, 100, 10, 1, 0.1 and 0 nM. The final concentration of forskolin was 10 μM. The final concentration of CPA was 10 nM. Intracellular cAMP concentration was detected with the cAMP dynamic 2 kit. cAMP-d2 and Anti-cAMP-Eu-Cryptate were diluted respectively with the cAMP lysis buffer at a ratio of 1:4. Each well was added with 12.5 μl of diluted cAMP-d2, followed by addition of 12.5 μl of diluted Anti-cAMP-Eu-Cryptate, and the plate was incubated at room temperature in the dark for 1 hour. The HTRF signal values were read by the PHERAstar multi-function microplate reader.
Background: TR-FRET usually uses a lanthanide donor and a delayed reading to cut background.

The target in experiment [2] is adenosine A2b receptor (A2bR) (Homo sapiens (Human), UniProt P29275). Nature of the experiment: Inhibition of adenosine A2b receptor cAMP signaling pathway (HTRF cAMP, CHO-K1/A2bR cells). The note with it: Table 3; for IC50: CHO-K1/A2bR cells, ethyl carbazole 1 μM, cAMP HTRF; for IC50 ratio (A2bR/A2aR): selectivity A2bR over A2aR.
Chain of adenosine A2b receptor (A2bR) (P29275 whole entry): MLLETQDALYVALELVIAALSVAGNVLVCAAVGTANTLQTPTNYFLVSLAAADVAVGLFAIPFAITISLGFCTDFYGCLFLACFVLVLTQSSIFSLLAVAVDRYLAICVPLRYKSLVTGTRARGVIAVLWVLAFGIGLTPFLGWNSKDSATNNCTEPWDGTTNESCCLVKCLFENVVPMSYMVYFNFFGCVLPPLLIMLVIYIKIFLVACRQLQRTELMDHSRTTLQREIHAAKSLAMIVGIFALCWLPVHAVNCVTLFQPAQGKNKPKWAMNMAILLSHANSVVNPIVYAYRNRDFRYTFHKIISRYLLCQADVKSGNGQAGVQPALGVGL
From the text: as §1, §2
2.4 Adenosine A2b receptor (A2bR)
CHO-K1/A2bR cells were cultured in DMEM/F12 medium containing 10% fetal bovine serum and 1 mg/ml G418. The cells were digested with the cell separation buffer during the experiment. The cells were resuspended in the balanced salt buffer containing 20 mM HEPES and 0.1% bovine serum albumin and counted, and the cell density was adjusted to 10^6 cells/ml. In the 384-well plate, each well was added with 5 μl of cell suspension, and 2.5 μl of test compound (4× concentration) formulated with the balanced salt buffer containing 20 mM HEPES, 0.1% bovine serum albumin, 54 μM rolipram and 2.7 U/ml adenosine deaminase, and the plate was incubated at room temperature for 30 minutes. Each well was then added with 2.5 μl of […] (4× concentration) (Torcis, 1691/10) formulated with the balanced salt buffer containing 20 mM HEPES, 0.1% bovine serum albumin, 54 μM rolipram and 2.7 U/ml adenosine deaminase, and the plate was incubated at room temperature for 30 minutes. The final concentrations of the compounds were: 100000, 10000, 1000, 100, 10, 1, 0.1 and 0 nM. The final concentration of […] was 1 μM. Intracellular cAMP concentration was detected with the cAMP dynamic 2 kit. cAMP-d2 and Anti-cAMP-Eu-Cryptate were diluted respectively with the cAMP lysis buffer at a ratio of 1:4. Each well was added with 5 μl of diluted cAMP-d2, followed by addition of 5 μl of diluted Anti-cAMP-Eu-Cryptate, and the plate was incubated at room temperature in the dark for 1 hour. The HTRF signal values were read by the PHERAstar multi-function microplate reader.

The target in experiment [3] is adenosine A2a receptor (A2aR) (Homo sapiens (Human), UniProt P29274). Nature of the experiment: Inhibition of adenosine A2a receptor cAMP signaling pathway (HTRF cAMP, CHO-K1/A2aR cells).
Chain of adenosine A2a receptor (A2aR) (P29274 whole entry): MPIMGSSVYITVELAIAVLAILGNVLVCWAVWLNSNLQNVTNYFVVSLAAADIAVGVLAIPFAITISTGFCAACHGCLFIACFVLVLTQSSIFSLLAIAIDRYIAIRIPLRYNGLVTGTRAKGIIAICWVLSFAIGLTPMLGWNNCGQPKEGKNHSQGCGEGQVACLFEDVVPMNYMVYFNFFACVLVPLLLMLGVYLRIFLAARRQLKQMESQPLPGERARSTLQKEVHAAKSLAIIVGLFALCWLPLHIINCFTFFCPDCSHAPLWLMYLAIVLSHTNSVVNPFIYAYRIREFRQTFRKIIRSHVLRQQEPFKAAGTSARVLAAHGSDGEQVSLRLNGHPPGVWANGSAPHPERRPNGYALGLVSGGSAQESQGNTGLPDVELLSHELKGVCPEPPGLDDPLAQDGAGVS
From the text: as §1, §2
2.1 Adenosine A2a Receptor
CHO-K1/A2aR cells were cultured in DMEM/F12 medium containing 10% fetal bovine serum and 800 μg/ml bleomycin. The cells were digested with the cell separation buffer during the experiment. The cells were resuspended in the balanced salt buffer containing 20 mM HEPES and 0.1% bovine serum albumin and counted, and the cell density was adjusted to 10^6 cells/ml. In the 384-well plate, each well was added with 5 μl of cell suspension, and 2.5 μl of test compound (4× concentration) formulated with the balanced salt buffer containing 20 mM HEPES, 0.1% bovine serum albumin, 54 μM rolipram and 2.7 U/ml adenosine deaminase, and the plate was incubated at room temperature for 30 minutes. Each well was then added with 2.5 μl of […] (4× concentration) formulated with the balanced salt buffer containing 20 mM HEPES, 0.1% bovine serum albumin, 54 μM rolipram and 2.7 U/ml adenosine deaminase, and the plate was incubated at room temperature for 30 minutes. The final concentrations of the compounds were: 10000, 2000, 400, 80, 16, 3.2, 0.64, 0.128, 0.0256, 0.00512, and 0.001024 nM. The final concentration of […] was 20 nM. Intracellular cAMP concentration was detected with the cAMP dynamic 2 kit. cAMP-d2 and Anti-cAMP-Eu-Cryptate were diluted respectively with the cAMP lysis buffer at a ratio of 1:4. Each well was added with 5 μl of diluted cAMP-d2, followed by addition of 5 μl of diluted Anti-cAMP-Eu-Cryptate, and the plate was incubated at room temperature in the dark for 1 hour. The HTRF signal values were read by the PHERAstar multi-function microplate reader.

The target of experiment [4] is adenosine A3 receptor (A3R) (Homo sapiens (Human), UniProt P0DMS8). In words: Inhibition of adenosine A3 receptor cAMP signaling pathway (HTRF cAMP, CHO-K1/A3R cells). Conditions: Table 2; for IC50: CHO-K1/A3R cells, forskolin 10 μM, 2Cl-IB-MECA 5 nM, cAMP HTRF.
Chain of adenosine A3 receptor (A3R) (P0DMS8 whole entry): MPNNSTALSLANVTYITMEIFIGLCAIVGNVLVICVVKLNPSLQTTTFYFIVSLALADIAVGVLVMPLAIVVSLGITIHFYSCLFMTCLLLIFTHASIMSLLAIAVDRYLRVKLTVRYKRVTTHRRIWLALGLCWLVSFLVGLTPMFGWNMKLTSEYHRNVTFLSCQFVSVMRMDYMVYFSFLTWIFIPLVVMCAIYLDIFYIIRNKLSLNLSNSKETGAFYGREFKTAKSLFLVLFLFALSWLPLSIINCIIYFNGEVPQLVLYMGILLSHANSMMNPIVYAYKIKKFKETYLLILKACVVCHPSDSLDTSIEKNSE
From the text: as §1, §2
2.3 Adenosine A3 receptor
as §3, with “CHO-K1/A3R cells were” for “CHO-K1/A1R cells were”, “serum and 10 μg/ml puromycin. The cells” for “serum and 1 mg/ml G418. The cells”, “cells were resuspended in” for “cells were then resuspended in”, “forskolin and 2Cl-IB-MECA (4× concentration)” for “forskolin and N6-cyclopentyladenosine (4× concentration)”, “concentration of 2Cl-IB-MECA was 5” for “concentration of CPA was 10”, “2Cl-IB-MECA was 5 nM. Intracellular” for “CPA was 10 nM. Intracellular”

In the case of `Cc1cc(-c2c(-c3ccccc3)nc(N)n3cnnc23)cc(Cl)n1` [Example 4, 8-(2-Chloro-6-methylpyridin-4-yl)-7-phenyl-[1,2,4]triazolo[4,3-c]pyrimidin-5-amine], the IC50 in experiment [1] is 37 nM; in experiment [2], 82.6 nM; in experiment [3] (Table 1, ethyl carbazole 20 nM) it was 0.08 nM; in experiment [3] (Table 2, ethyl carbazole 20 nM) it was 0.08 nM; in experiment [3] (Table 3, ethyl carbazole 20 nM) it was 0.08 nM; in experiment [4], greater than 10000 nM. Besides, in experiment [1], the “IC50 ratio (A1R/A2aR)” value came to 463. Also, in experiment [2], the “IC50 ratio (A2bR/A2aR)” value is on record as 1032. Besides, the “IC50 ratio (A3R/A2aR)” value in experiment [4] is reported as >1.3 × 10^5.

With `Cc1cc(-c2c(-c3ccccc3F)nc(N)n3cnnc23)cc(C)n1` [Example 19, 8-(2,6-Dimethylpyridin-4-yl)-7-(2-fluorophenyl)-[1,2,4]triazolo[4,3-c]pyrimidin-5-amine], the half-maximal inhibitory concentration (IC50) is 173 nM in experiment [1]; 85.4 nM in experiment [2]; 0.96 nM in experiment [3] (Table 1, ethyl carbazole 20 nM); 0.96 nM in experiment [3] (Table 2, ethyl carbazole 20 nM); 0.96 nM in experiment [3] (Table 3, ethyl carbazole 20 nM); greater than 10000 nM in experiment [4]. For the same molecule, in experiment [1], the “IC50 ratio (A1R/A2aR)” value came out at 180. Besides, in experiment [2], the “IC50 ratio (A2bR/A2aR)” value was found to be 89. Moreover, the “IC50 ratio (A3R/A2aR)” value in experiment [4] is listed as >10^4.

Regarding `Cc1cc(-c2c(-c3ccc(F)cc3)nc(N)n3cnnc23)cc(C)n1` [Example 28, 8-(2,6-Dimethylpyridin-4-yl)-7-(4-fluorophenyl)-[1,2,4]triazolo[4,3-c]pyrimidin-5-amine], the IC50 was 66 nM in experiment [1]; 0.52 nM in experiment [3] (Table 1, ethyl carbazole 20 nM); 0.52 nM in experiment [3] (Table 2, ethyl carbazole 20 nM); greater than 10000 nM in experiment [4]. For the same molecule, the “IC50 ratio (A1R/A2aR)” value in experiment [1] came to 127. Moreover, the “IC50 ratio (A3R/A2aR)” value in experiment [4] is on record as >1.9 × 10^4.

With `Cc1cc(-c2c(-c3ccc(F)cc3)nc(N)n3cnnc23)cc(C(F)F)n1` [Example 51, 8-(2-(Difluoromethyl)-6-methylpyridin-4-yl)-7-(4-fluorophenyl)-[1,2,4]triazolo[4,3-c]pyrimidin-5-amine], the IC50 in experiment [1] was 418 nM; in experiment [3] (Table 1, ethyl carbazole 20 nM) it was 0.36 nM; in experiment [3] (Table 2, ethyl carbazole 20 nM), 0.36 nM; in experiment [4], greater than 10000 nM. In addition, in experiment [1], the “IC50 ratio (A1R/A2aR)” value is recorded as 1161. For the same molecule, the “IC50 ratio (A3R/A2aR)” value in experiment [4] is listed as >10^4.

With `Cc1cc(-c2c(-c3ccc(Cl)cc3)nc(N)n3cnnc23)cc(C(F)F)n1` [Example 52, 7-(4-Chlorophenyl)-8-(2-(difluoromethyl)-6-methylpyridin-4-yl)-[1,2,4]triazolo[4,3-c]pyrimidin-5-amine], the IC50 in experiment [1] is 41 nM; in experiment [3] (Table 1, ethyl carbazole 20 nM) it was 0.48 nM; in experiment [3] (Table 2, ethyl carbazole 20 nM) it was 0.48 nM; in experiment [4] it was greater than 10000 nM. The “IC50 ratio (A1R/A2aR)” value in experiment [1] amounted to 85. In addition, the “IC50 ratio (A3R/A2aR)” value in experiment [4] is reported as >10^4.

As for `Cc1cc(-c2c(-c3ccc(F)cc3)nc(N)n3cnnc23)cc(CF)n1` [Example 55, 8-(2-(Fluoromethyl)-6-methylpyridin-4-yl)-7-(4-fluorophenyl)-[1,2,4]triazolo[4,3-c]pyrimidin-5-amine], the IC50 is 222 nM in experiment [1]; 78.2 nM in experiment [2]; 1.04 nM in experiment [3] (Table 1, ethyl carbazole 20 nM); 1.04 nM in experiment [3] (Table 2, ethyl carbazole 20 nM); 1.04 nM in experiment [3] (Table 3, ethyl carbazole 20 nM); greater than 10000 nM in experiment [4]. Further, the “IC50 ratio (A1R/A2aR)” value in experiment [1] was determined as 214. In addition, the “IC50 ratio (A2bR/A2aR)” value in experiment [2] was determined as 75. Moreover, the “IC50 ratio (A3R/A2aR)” value in experiment [4] was >10^3.

Take `Cc1cc(-c2c(-c3ccccc3F)nc(N)n3cnnc23)cc(C(F)F)n1` [Example 56, 8-(2-(Difluoromethyl)-6-methylpyridin-4-yl)-7-(2-fluorophenyl)-[1,2,4]triazolo[4,3-c]pyrimidin-5-amine]: the IC50 was 248 nM in experiment [1]; 112 nM in experiment [2]; 1.68 nM in experiment [3] (Table 1, ethyl carbazole 20 nM); 1.68 nM in experiment [3] (Table 2, ethyl carbazole 20 nM); 1.68 nM in experiment [3] (Table 3, ethyl carbazole 20 nM); greater than 10000 nM in experiment [4]. In addition, the “IC50 ratio (A1R/A2aR)” value in experiment [1] amounted to 148. In experiment [2], the “IC50 ratio (A2bR/A2aR)” value came to 67. The “IC50 ratio (A3R/A2aR)” value in experiment [4] is given as >10^3.

For the molecule `Cc1cc(-c2c(-c3ccccc3F)nc(N)n3cnnc23)cc(CF)n1` [Example 57, 8-(2-(Fluoromethyl)-6-methylpyridin-4-yl)-7-(2-fluorophenyl)-[1,2,4]triazolo[4,3-c]pyrimidin-5-amine], the IC50 was 302 nM in experiment [1]; 209 nM in experiment [2]; 2.59 nM in experiment [3] (Table 1, ethyl carbazole 20 nM); 2.59 nM in experiment [3] (Table 2, ethyl carbazole 20 nM); 2.59 nM in experiment [3] (Table 3, ethyl carbazole 20 nM); greater than 10000 nM in experiment [4]. Besides, the “IC50 ratio (A1R/A2aR)” value in experiment [1] came out at 117. Moreover, in experiment [2], the “IC50 ratio (A2bR/A2aR)” value stood at 81. Also, the “IC50 ratio (A3R/A2aR)” value in experiment [4] is listed as >10^3.
